A short description of this series: Optimal pH (chemical and physical stability across the pH range). In kind it is physicochemical. An excerpt: The person skilled in the art can easily find the amylin receptor agonist's optimal pH by testing its chemical and physical stability, in an aqueous solution essentially consisting of the amylin receptor agonist, a buffer and water for injection, across the pH range.
The person skilled in the art can easily find the GLP-1 receptor agonist's optimal pH by testing its chemical and physical stability, in an aqueous solution essentially consisting of the GLP-1 receptor agonist, a buffer and water for injection, across the pH range. The physical stability of the GLP-1 receptor agonist may be a reflection of its isoelectric point, which may coincide with the pH where poorest physical stability might be expected.

Regarding “N^6.26-{18-[N-(17-carboxyheptadecanoyl)-L-γ-glutamyl]-10-oxo-3,6, 12, 15-tetraoxa-9,18-diazaoctadecanoyl}-[8-(2-amino-2-propanoic acid),34-L-arginine] human glucagon-like peptide 1 (7-37) [Semaglutide]”, the “pH at which optimally stable” value is on record as 7.4.
